Results: ChEMBL document CHEMBL4842309, “(9βH)- and 17-Nor-Pimaranes from Icacina oliviformis” (J Nat Prod, 2021)
Active and inactive are the calls of the source. The calls are words filed in the database; no cut-off is given here.

Tests used:
Type in all cases: functional, cell-based
[1] = test system: MDA-MB-231; experiment: Cytotoxicity against human MDA-MB-231 cells assessed as inhibition of cell proliferation measured after 72 hrs by CellTiter 96 AQueous One Solution Cell Proliferation assay; settings: for IC50: MDA-MB-231, 72 h
[2] = test system: OVCAR-3; experiment: Cytotoxicity against human OVCAR-3 cells assessed as inhibition of cell proliferation measured after 72 hrs by CellTiter 96 AQueous One Solution Cell Proliferation assay; settings: for IC50: OVCAR-3, 72 h
[3] = test system: MDA-MB-435; experiment: Cytotoxicity against human MDA-MB-435 cells assessed as inhibition of cell proliferation measured after 72 hrs by CellTiter 96 AQueous One Solution Cell Proliferation assay; settings: for IC50: MDA-MB-435, 72 h
[4] = test system: HCT-116; experiment: Cytotoxicity against human HCT-116 cells assessed as reduction in cell viability incubated for 72 hrs by MTT assay; settings: HCT-116, 72 h
[5] = test system: HL-60; experiment: Cytotoxicity against human HL-60 cells assessed as reduction in cell viability incubated for 72 hrs by MTT assay; settings: HL-60, 72 h
[6] = test system: SF-295; experiment: Cytotoxicity against human SF-295 cells assessed as reduction in cell viability incubated for 72 hrs by MTT assay; settings: SF-295, 72 h
[7] = test system: A2780; experiment: Cytotoxicity against human A2780 cells assessed as reduction in cell viability incubated for 72 hrs by MTT assay; settings: A2780, 72 h
[8] = test system: HepG2; experiment: Cytotoxicity against human HepG2 cells assessed as reduction in cell viability incubated for 72 hrs by MTT assay; settings: HepG2, 72 h
[9] = test system: PC-3; experiment: Cytotoxicity against human PC-3 cells assessed as reduction in cell viability incubated for 72 hrs by MTT assay; settings: PC-3, 72 h
[10] = test system: HT-29; experiment: Cytotoxicity against human HT-29 cells measured after 72 hrs by CellTiter 96 AQueous One Solution Cell Proliferation assay; settings: HT-29, 72 h

Row | SMILES | Activity [1] | Activity [2] | Activity [3] | IC50 [1] [µM] | IC50 [2] [µM] | IC50 [3] [µM] | IC50 [7] [µM] | other results
1 | COc1cc2c(c3occc13)C[C@H]1OC(=O)[C@]3(C)[C@H]1[C@@]21CO[C@]3(O)[C@@H](O[C@@H]2O[C@H](CO)[C@@H](O)[C@H](O)[C@H]2O)C1 | inactive | inactive | inactive |  |  |  |  | 
2 | COc1cc2c(c3occc13)C[C@@H](O)[C@@H]1[C@]23CC[C@@H](O[C@@H]2O[C@H](CO)[C@@H](O)[C@H](O)[C@H]2O)[C@@]1(C)C(=O)OC3 | inactive | inactive | inactive |  |  |  |  | 
3 | C[C@@]1(C(=O)CO)CC[C@@H]2C(=C[C@H]3OC(=O)[C@]4(C)[C@H]3[C@]23CC[C@@]4(O)OC3)C1 |  |  |  | 2.7 | 4.4 | 2.3 | 3.9 | IC50 [4]: 1.7 µM; IC50 [5]: 2.1 µM; IC50 [6]: 2.2 µM; IC50 [8]: 5.7 µM; IC50 [9]: 3.6 µM
4 | CO[C@@]12OC[C@@H](O)[C@]1(C)CC[C@@H]1C2=C[C@H]2OC(=O)[C@]3(C)[C@H]2[C@]12CC[C@@]3(O)OC2 |  |  |  | 4 | 6.3 | 3.6 |  | 
5 | C[C@@]12CC[C@@H]3C(=C[C@H]4OC(=O)[C@]5(C)[C@H]4[C@]34CC[C@@]5(O)OC4)[C@]1(O)OC[C@H]2O |  |  |  | 3.4 | 5.6 | 2.8 | 1.7 | IC50 [10]: 4.2 µM
6 | C[C@@]1([C@H](O)CO)CC[C@@H]2C(=C[C@H]3OC(=O)[C@@]4(C)CCC[C@@]2(C)[C@@H]34)C1 | inactive | inactive | inactive |  |  |  |  | 
